Measured values reported in patent publication US20250122171A1, “Substituted Amine Compounds, Compositions and Methods of Use” (Deep Apple Therapeutics, Inc., priority 2023, published 2025).

Each molecule was assayed against T1, human MRGPRX2 (Homo sapiens, UniProt Q96LB1) (assay: MRGPRX2 Activity Assay (IP-1 HTRF, antagonist mode)). Conditions: FlpIn TRex-MRGPRX2-HEK293 cells; versus 1 μM Cortistatin-14 agonist; 30 minutes preincubation.
T1 construct: expressed in transfected cells; host or cells: FlpIn TRex HEK293 (TRex-MRGPRX2-HEK), doxycycline-induced
T1 sequence (Q96LB1 1-330): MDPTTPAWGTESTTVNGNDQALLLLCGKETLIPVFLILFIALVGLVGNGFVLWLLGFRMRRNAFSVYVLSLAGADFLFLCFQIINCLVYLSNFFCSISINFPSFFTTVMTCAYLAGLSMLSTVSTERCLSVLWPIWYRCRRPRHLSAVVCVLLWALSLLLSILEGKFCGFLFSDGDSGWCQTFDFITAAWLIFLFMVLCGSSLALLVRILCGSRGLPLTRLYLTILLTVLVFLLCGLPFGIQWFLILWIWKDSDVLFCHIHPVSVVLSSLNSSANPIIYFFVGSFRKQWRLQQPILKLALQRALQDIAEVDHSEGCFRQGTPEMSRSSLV
Type: cell-based
Method: FlpIn TRex-MRGPRX2-HEK293 cells (herein TRex-MRPGRX2-HEK) stably transfected to express human MRGPRX2 were maintained at 37° C. with 5% CO2 and grown in DMEM supplemented with 10% FBS, 1% L-Glutamate, 1% penicillin/streptomycin, 100 ug/mL Hygromycin B, and 15 ug/mL Blasticidin.
GOI (MRGPRX2) expression was induced with 100 ng/mL of Doxycycline 18-24 hours prior to experiment, in flask. On the day of experiment, cells were lifted with TripLE Express and seeded in 384-well white walled opaque bottomed, assay plates, at 8,000 cells per well in 5 uL freshly made assay buffer (HBSS, 20 mM HEPES, 0.1% BSA and 10 mM LiCl). Compounds solubilized in 100% DMSO at 30 mM were serially diluted (1:4) first in 100% DMSO, and an intermediate plate of assay buffer was used to establish a final top concentration of 30 uM (in assay plate). Final DMSO concentration was kept constant at 1% across assay plates. […], at 30 mM stock concentration was solubilized in HBSS+0.1% BSA, stored at −20° C. in 5 μL aliquots and discarded after one freeze-thaw cycle. […].
Antagonist equilibrium was established with 30 minutes preincubation, followed by no wash, direct addition, and stimulation of agonist for 1 hour at 37° C./5% CO2. IP-1 standards and HTRF detection reagents were added according to the IP-one Gq kit protocol purchased from CisBio (part number 62IPAPEJ). The plate was read on an EnVision XCite plate reader. The HTRF ratio was then calculated from raw data (channel1/channel2×10,000) and analyzed using either GraphPad Prism or a custom Python script to calculate IC50 using Log[Antagonist] vs. response (4 parameter) nonlinear regression.
Work on C[C@@H](C(=O)Nc1cn2c(n1)CC[C@@H]2c1cc(F)cc(F)c1)N1CCOCC1 (single isomer, unassigned) [Compound 511] yielded an IC50 of over 30 µM.
C[C@H](C(=O)Nc1cn2c(n1)CC[C@@H]2c1cc(F)cc(F)c1)N1CCOCC1 (single isomer, unassigned) [Compound 512] gave an IC50 of 4.08 µM.
For C[C@H](C(=O)Nc1cn2c(n1)CC[C@H]2c1cc(F)cc(F)c1)N1CCOCC1 (single isomer, unassigned) [Compound 513], the IC50 was over 30 µM.
C[C@@H](C(=O)Nc1cn2c(n1)CC[C@H]2c1cc(F)cc(F)c1)N1CCOCC1 (single isomer, unassigned) [Compound 514] showed an IC50 of over 30 µM.
With C[C@@H](C(=O)Nc1cn2c(n1)[C@H](O)C[C@@H]2c1cc(F)cc(F)c1)N1CCC(F)(F)[C@@H](c2ccc(=O)[nH]c2)C1 (single isomer, unassigned) [Compound 515] the IC50 was 4.6 µM.
C[C@@H](C(=O)Nc1cn2c(n1)[C@@H](O)C[C@@H]2c1cc(F)cc(F)c1)N1CCC(F)(F)[C@@H](c2ccc(=O)[nH]c2)C1 (single isomer, unassigned) [Compound 516] was tested, and the IC50 was over 30 µM.
C[C@@H](C(=O)Nc1cn2c(n1)[C@@H](O)C[C@H]2c1cc(F)cc(F)c1)N1CCC(F)(F)[C@@H](c2ccc(=O)[nH]c2)C1 (single isomer, unassigned) [Compound 517] was tested, and the IC50 was over 30 µM.
In the case of C[C@@H](C(=O)Nc1cn2c(n1)[C@H](O)C[C@H]2c1cc(F)cc(F)c1)N1CCC(F)(F)[C@@H](c2ccc(=O)[nH]c2)C1 (single isomer, unassigned) [Compound 518], the IC50 is reported as over 30 µM.
For C[C@@H](C(=O)Nc1cn2c(n1)CC[C@@H]2c1cc(F)cc(F)c1)N1CCC(F)(F)[C@@](C)(c2cc[n+]([O-])cc2)C1 (single isomer, unassigned) [Compound 519], the IC50 was over 30 µM.
C[C@@H](C(=O)Nc1cn2c(n1)CC[C@@H]2c1cc(F)cc(F)c1)N1CCC(F)(F)[C@](C)(c2cc[n+]([O-])cc2)C1 (single isomer, unassigned) [Compound 520] showed an IC50 of 0.129 µM.
Work on C[C@@H](C(=O)Nc1cn2c(n1)CC[C@@H]2c1cc(F)cc(F)c1)N1CCC2(CC2)[C@@H](c2cc[n+]([O-])cc2)C1 (single isomer, unassigned) [Compound 521] yielded an IC50 of 4.75 µM.
C[C@@H](C(=O)Nc1cn2c(n1)CC[C@@H]2c1cc(F)cc(F)c1)N1CCC2(CC2)[C@H](c2cc[n+]([O-])cc2)C1 (single isomer, unassigned) [Compound 522] gave an IC50 of 0.229 µM.
In the case of C[C@@H](C(=O)Nc1cn2c(n1)CC[C@@H]2c1cc(F)cc(F)c1)N1CCC(F)(F)[C@@H](c2c[nH]c(=O)c(CO)c2)C1 (single isomer, unassigned) [Compound 523], the IC50 is reported as over 30 µM.
C[C@@H](C(=O)Nc1cn2c(n1)CC[C@@H]2c1cc(F)cc(F)c1)N1CCC(F)(F)[C@H](c2c[nH]c(=O)c(CO)c2)C1 (single isomer, unassigned) [Compound 524] showed an IC50 of 0.05 µM.
Molecule C[C@@H](C(=O)Nc1cn2c(n1)CC[C@@H]2c1cc(F)cc(F)c1)N1CCC(F)(F)[C@@H](c2cc[n+]([O-])c(CO)c2)C1 (single isomer, unassigned) [Compound 525] has an IC50 of 5.48 µM.
C[C@@H](C(=O)Nc1cn2c(n1)CC[C@@H]2c1cc(F)cc(F)c1)N1CCC(F)(F)[C@H](c2cc[n+]([O-])c(CO)c2)C1 (single isomer, unassigned) [Compound 526] showed an IC50 of 0.0098 µM.
C[C@@H](C(=O)Nc1cn2c(n1)CC[C@@H]2c1cc(F)cc(F)c1)N1CCC(F)(F)[C@@H](c2c[nH]c(=O)cn2)C1 (single isomer, unassigned) [Compound 527] showed an IC50 of 0.102 µM.
Molecule C[C@@H](C(=O)Nc1cn2c(n1)CC[C@@H]2c1cc(F)cc(F)c1)N1CCC(F)(F)[C@H](c2c[nH]c(=O)cn2)C1 (single isomer, unassigned) [Compound 528] has an IC50 of 0.0068 µM.
In the case of C[C@@H](C(=O)Nc1cn2c(n1)CC[C@@H]2c1cc(F)cc(F)c1)N1CCC(F)(F)[C@@H](c2ccc(=O)n(C)c2)C1 (single isomer, unassigned) [Compound 532], the IC50 is reported as 5.2 µM.
